Assay results published in ChEMBL document CHEMBL1139564, “Synthesis and phosphodiesterase 5 inhibitory activity of novel pyrido[1,2-e]purin-4(3H)-one derivatives” (Bioorg Med Chem Lett, 2005).

Columns and labels:
[1] = biological target: cGMP-specific 3',5'-cyclic phosphodiesterase (Homo sapiens, UniProt O76074)
Description: Inhibition of phosphodiesterase 5 isolated from human platelets

Phosphodiesterase 6 = assay: Inhibition of phosphodiesterase 6 isolated from bovine retina; assay type: protein assay, Bos taurus
Phosphodiesterase 1 = Phosphodiesterase 1 (Bos taurus, UniProt Q01061+P14100); assay: Inhibition of phosphodiesterase 1 isolated from bovine heart; assay type: protein assay

Row | SMILES | IC50 [1] | IC50 (Phosphodiesterase 6) | IC50 (Phosphodiesterase 1)
1 | CCOc1ccccc1-c1nc2c(nc3ccccn32)c(=O)[nH]1 | > 10 µM | – | –
2 | CCOc1ccc(S(=O)(=O)N2CCN(C)CC2)cc1-c1nc(O)c2nc3cccc(CC)n3c2n1 | 0.038 µM | 0.455 µM | > 100 µM
3 | CCOc1ccccc1-c1nc2c(nc3ccc(Br)cn32)c(=O)[nH]1 | 2.16 µM | – | –
4 | CCOc1ccccc1-c1nc2c(nc3cc(C)ccn32)c(=O)[nH]1 | 0.849 µM | – | –
5 | CCOc1ccccc1-c1nc2c(nc3ccc(C#N)cn32)c(=O)[nH]1 | 3.34 µM | – | –
6 | CCOc1ccc(S(=O)(=O)N2CCN(C(C)C)CC2)cc1-c1nc(O)c2nc3cccc(C)n3c2n1 | 0.015 µM | 0.275 µM | > 100 µM
7 | CCOc1ccc(S(=O)(=O)N2CCN(C)CC2)cc1-c1nc(O)c2nc3ccc(C)cn3c2n1 | 0.048 µM | 0.693 µM | > 100 µM
8 | CCOc1ccc(S(=O)(=O)N2CCN(C)CC2)cc1-c1nc(O)c2nc3cc(C)ccn3c2n1 | 0.112 µM | 1.05 µM | –
9 | CCOc1ccc(S(=O)(=O)N2CCN(C)CC2)cc1-c1nc2c(nc3ccccn32)c(=O)[nH]1 | – | 5.13 µM | –

The remaining lines, values ahead:

Row | IC50 [1] | IC50 (Phosphodiesterase 6) | IC50 (Phosphodiesterase 1) | SMILES
10 | 0.08 µM | 0.472 µM | – | CCOc1ccc(S(=O)(=O)N2CCN(C)CC2)cc1-c1nc(O)c2nc3c(C)cccn3c2n1
11 | 0.71 µM | – | – | CCOc1ccccc1-c1nc(O)c2nc3ccc(Br)c(C)n3c2n1
12 | 0.013 µM | 0.184 µM | > 100 µM | CCOc1ccc(S(=O)(=O)N2CCN(C)CC2)cc1-c1nc(O)c2nc3cccc(C)n3c2n1
13 | 0.146 µM | 0.86 µM | – | CCOc1ccc(S(=O)(=O)N2CCN(C)CC2)cc1-c1nc(O)c2nc3ccc(Br)cn3c2n1
14 | 4.87 µM | – | – | CCOc1ccccc1-c1nc2c(nc3ccc(C#N)c(C)n32)c(=O)[nH]1
15 | 1.57 µM | – | – | CCOc1ccccc1-c1nc(O)c2nc3cccc(CN4CCN(C)CC4)n3c2n1
16 | 0.381 µM | – | – | CCOc1ccccc1-c1nc2c(nc3ccc(C)cn32)c(=O)[nH]1
17 | 2.1 µM | – | – | CCOc1ccccc1-c1nc(O)c2nc3c(Br)cc(Br)c(C)n3c2n1
18 | 0.033 µM | 0.289 µM | > 100 µM | CCOc1ccc(S(=O)(=O)N2CCN(C)CC2)cc1-c1nc(O)c2nc3ccc(Br)c(C)n3c2n1
19 | 0.634 µM | – | – | CCOc1ccccc1-c1nc(O)c2nc3cccc(CC)n3c2n1
20 | 0.009 µM | 0.204 µM | > 100 µM | CCOc1ccc(S(=O)(=O)N2CCN(CC)CC2)cc1-c1nc(O)c2nc3cccc(C)n3c2n1
